Measured values from patent publication US6251950A, “Aliphatic propargylamines as cellular rescue agents” (University of Saskatchewan, priority 1998, dated 2001).

Experiments:
[1] = in vitro; format: cell-based, Wistar rat; conditions: rat, cerebellar granule cells
Source text: (§1) Cultures of cerebellar granule cells (CGC) can be induced into apoptosis by the addition of a high concentration of cytosine arabinoside (Ara C) (Dessi et al., 1995) and it has been shown that this is a p53 dependent apoptosis (Enokido et al, 1996). We have measured the antiapoptotic effect of N-(2-heptyl)propargylamine (2HPA) using this system and compared the results to those obtained with previously known aliphatic methyl propargylamines and deprenyl.
(§2) Cultures of CGC were obtained from 6-8 day old Wistar rat pups. Cultures were grown on glass in 35 mm petri dishes for 3 days and then used for experiments. 20 μl aliquots of drug solutions (Ara C, anti-apoptotic drugs, drug vehicles) were added to the medium of the cultures. 24 Hours later the cultures were fixed with FAM, and stained with bis-benzamide. Normal and apoptotic nuclei were counted to a total of 90-120 cells per culture. […] Concentrations in excess of 150 μM caused detachment of the cultures.
(§3) Compounds were added at the following concentrations: Ara C, 100 μM,

[2] = tested on: cerebellar granule cells (CGC); experiment: in vitro; format: cell-based, Wistar rat
Source text: as §1, §2, §3

[3] = tested on: hippocampal CA1 neurons; experiment: Kainic acid-induced neuronal damage; format: in vivo, rat; conditions: in words
[4] = tested on: LNGFR mRNA, PC12 cells; experiment: LNGFR mRNA levels in PC12 cells (Northern Blot); format: cell-based
Experimental: The LNGFR mRNA levels were detected by Northern Blots using total RNA from cultured PC12 cells treated with R-2HPA for 24 hours. The blots were hybridized with LNGFR cDNA probe labelled with P^32 dCTP and the auto radiographs were scanned by a Beckman spectrometer.

[5] = tested on: SOD1 mRNA, PC12 cells; experiment: SOD1 mRNA levels in PC12 cells (Northern Blot); format: cell-based
Experimental: PC12 cells were used to study the gene regulation of SOD (copper, zinc-dependent type, i.e. SOD1) by (R)-2-heptylpropargylamine (R-2HPA).
The SOD1 mRNA levels were detected by Northern Blots using total RNA from cultured PC12 cells treated with R-2HPA for 24 hours. The blots were hybridized with SOD1 cDNA probe labelled with P^32 dCTP and the auto radiographs were scanned by a Beckman spectrometer.

[6] = tested on: pyramidal neurons in the hippocampus (CA1 neurons); experiment: Hypoxia/ischaemia model, CA1 neuron survival; format: in vivo, rat
[7] = target: T1, mouse brain MAO-B (Mus musculus, UniProt Q8BW75); experiment: Inhibition in vivo of brain MAO-B activity after intraperitoneal administration
T1 construct: Striata were dissected from the brain two hours after i.p. administration of the drugs; from tissue; host or cells: mouse brain striata, dissected two hours after i.p. dosing
T1 sequence (Q8BW75 1-520): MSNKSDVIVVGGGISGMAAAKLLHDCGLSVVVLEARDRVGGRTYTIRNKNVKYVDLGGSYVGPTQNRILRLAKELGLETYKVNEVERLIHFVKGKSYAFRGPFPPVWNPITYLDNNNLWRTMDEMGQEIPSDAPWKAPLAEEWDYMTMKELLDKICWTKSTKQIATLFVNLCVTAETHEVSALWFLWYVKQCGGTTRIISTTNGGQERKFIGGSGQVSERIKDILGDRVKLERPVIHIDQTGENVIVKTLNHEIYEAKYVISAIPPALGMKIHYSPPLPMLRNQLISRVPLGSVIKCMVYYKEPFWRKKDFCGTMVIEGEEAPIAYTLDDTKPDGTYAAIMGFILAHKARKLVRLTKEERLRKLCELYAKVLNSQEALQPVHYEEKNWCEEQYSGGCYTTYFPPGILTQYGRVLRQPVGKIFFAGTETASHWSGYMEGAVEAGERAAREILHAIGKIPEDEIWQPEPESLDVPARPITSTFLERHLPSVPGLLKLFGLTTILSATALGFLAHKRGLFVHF
Experimental: Results are the average of two independent triplicate experiments for each i.p. dose. The doses were 0.5, 1, 2, 5, 10, 20 mg/Kg. Striata were dissected from the brain two hours after i.p. administration of the drugs. MAO-B activities were then determined immediately (Yu et al 1992). The values were estimated from dose-response curves.

[8] = tested on: HSP70; experiment: Kainate-induced HSP70 expression in hippocampal CA1 field; format: in vivo, rat
Experimental: (§4) The levels of both proteins were measured 24 h after a single injection of kainate (10 mg/Kg,i.p). The levels (assessed by quantitative immunohistochemical imaging) can be seen in Table 5.
(§5) Values are means ± sem (n = 5)
(§6) Kainate (10 mg/Kg, i.p.); Rats with seizures between stages IV severe to V
(§7) severe were used. R-2HPA (0.25 mg/Kg, s.c.) was administered 4 h after
(§8) kainate injection; HSP70 and c-Fos expression were assessed 24 h after
(§9) kainate treatment (for details of method please see Zhang et al, 1996).
(§10) Statistics were performed using ANOVA followed by Newman-Keuls multiple

[9] = tested on: c-Fos; experiment: Kainate-induced delayed c-Fos expression in hippocampal CA1 field; format: in vivo, rat
Experimental: as §4, §5, §6, §7, §8, §9, §10

[10] = target: T2, rat liver mitochondrial monoamine oxidase B (Rattus norvegicus, UniProt P19643); experiment: biochemical; format: biochemical
T2 sequence (P19643 1-520): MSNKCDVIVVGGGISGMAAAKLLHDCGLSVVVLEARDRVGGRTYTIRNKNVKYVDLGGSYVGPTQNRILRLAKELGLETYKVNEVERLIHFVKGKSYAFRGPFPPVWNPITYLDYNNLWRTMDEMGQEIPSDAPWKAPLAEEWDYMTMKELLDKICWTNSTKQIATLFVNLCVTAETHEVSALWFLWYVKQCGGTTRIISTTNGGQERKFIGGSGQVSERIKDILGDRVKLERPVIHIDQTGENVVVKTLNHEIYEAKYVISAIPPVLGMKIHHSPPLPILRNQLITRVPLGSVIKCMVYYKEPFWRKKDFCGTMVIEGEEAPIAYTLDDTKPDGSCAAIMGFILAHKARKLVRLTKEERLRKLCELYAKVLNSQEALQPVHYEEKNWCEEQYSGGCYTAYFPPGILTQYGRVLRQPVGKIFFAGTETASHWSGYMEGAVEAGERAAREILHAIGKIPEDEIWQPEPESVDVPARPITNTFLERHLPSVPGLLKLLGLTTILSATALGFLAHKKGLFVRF
Experimental: Enzyme activity was assessed using a radiometric method as previously described (Yu et al, 1992).

[11] = tested on: neurons; conditions: cited from earlier work
[12] = rodents and humans; cited from earlier work
[13] = tested on: SOD1 mRNA, PC12 cells; conditions: Li, et al., 1995; cited from earlier work
[14] = tested on: PC12 cells; conditions: cited from earlier work
[15] = tested on: catecholaminergic neuroblastoma SH-SY5Y cells; conditions: cited from earlier work
[16] = tested on: Alzheimer's disease; conditions: some patients; cited from earlier work
[17] = tested on: damaged neurons; conditions: some models; cited from earlier work
[18] = tested on: Tourette's syndrome; conditions: Tourette's syndrome patients; cited from earlier work
[19] = tested on: Parkinson's disease; conditions: cited from earlier work
[20] = low concentrations; cited from earlier work
[21] = after kainate, rat hippocampal CA1 region
[22] = kainate 10 mg/Kg i.p., R-2HPA 0.25 mg/Kg s.c. 4 h after, assessed 24 h after kainate, mean ± sem (n = 5), *p < 0.01
[23] = kainate 10 mg/Kg i.p., 24 h, mean ± sem (n = 5)

Molecule: Nc1ccn([C@@H]2O[C@H](CO)[C@@H](O)[C@@H]2O)c(=O)n1 [Ara C, cytosine arabinoside]
- MCC at 24 h [1]: > 150 µM
- Percent Apoptotic Nuclei (Ara C alone) ([2]; Ara C 100 μM, mean ± sem of 4 cultures): 14.6 ± 0.9%

Molecule: C#CCN[C@H](C)CCCCC.Cl [Example R-2HPA, (R)-N-2-Heptylpropargylamine hydrochloride]
- prevention of kainic acid-induced neuronal damage [3]: capable of preventing kainic acid-induced neuronal damage
- LNGFR mRNA ([4]; PC12 cells): downregulated LNGFR mRNA
- mrna remaining at 1 µM ([4]; Rattus norvegicus, PC-12, 1 μM, 24 hours, Mean ± SD (n = 4), **p < 0.01, control 100 ± 5.4): 68.8 ± 16.4%
- SOD1 gene expression ([5]; PC12 cells): stimulate SOD1 gene expression
- SOD1 mRNA level, % of control at 1 µM ([5]; Rattus norvegicus, PC-12, 1 μM, 24 hours, Mean ± SD (n = 4), **p < 0.01, control 100 ± 20): 184 ± 41%
- mean survival of CA1 neurons, percentage of vehicle treated controls (Table 2) ([6]; 0.1 μmol/kg, s.c., vehicle = 100%, ± sem (n = 6-10), **P < 0.01): 320 ± 48%
- response vs control in vivo at 0.1 µmol/kg ([6]; Rattus norvegicus, Neuron, sc, 0.1 μmol/kg, s.c., vehicle = 100%, ± sem (n = 6-10), *P < 0.05, **P < 0.01, read-out: Percentage survival of CA1 neurones, of vehicle treated controls (Table 4)): 320 ± 48%
- potency following oral administration versus R-2HMP ([6]; oral): more potent than its aliphatic methyl propargylamine analogue, R-2HMP
- activity in the hypoxia/ischaemia model ([6]; s.c.): Most active
- inhibitory effect on mouse brain MAO-B ([7]; i.p., compared with R-2HMP): weaker inhibitory effect
- Comparison to most effective inhibitor ([7]; in vivo, i.p., relative to R-2HMP): 5%
- ED50 value fold higher than that of R-2HMP ([7]; mouse brain MAO-B, i.p.): 20 fold
- ED50 ([7]; mouse, ip, 2 h, read-out: IC50 (mg/Kg) (MAO-B, in vivo)): 4 mg/kg
- HSP70 expression [8, 21]: able to block the expression of both genes
- HSP70 (Kainate + compound) [8, 22]: 4.6 ± 2.0
- delayed c-Fos expression [9, 21]: able to block the expression of both genes
- Delayed c-Fos (Kainate + compound) [9, 22]: 4.5 ± 3.7
- Comparison to most effective MAO-B inhibitor in group ([10]; in vitro, relative to most effective inhibitor in group): 0.8%
- IC50 ([10]; substrate PE (β-phenylethylamine) 1.9 × 10^-5 M, average of at least 2 independent triplicate experiments): 4 µM

Molecule: C=C(C)[C@H]1CN[C@H](C(=O)O)[C@H]1CC(=O)O [Kainate, kainic acid]
- HSP70 (Kainate alone) [8, 23]: 10.8 ± 3.1
- Delayed c-Fos (Kainate alone) [9, 23]: 18.0 ± 4.5

Molecule: C#CCNC1CCc2ccccc21 (stereo not shown) [N-propargyl-1-aminoindan]
- in vitro neuronal survival after glutamate toxicity [11]: effective in enhancing the in vitro neuronal survival

Molecule: C#CCN(C)[C@H](C)Cc1ccccc1 [R-deprenyl]
- life span and sexual activity [12]: prolong life span and sexual activity
- SOD1 mRNA induction (previous findings) [13]: can induce SOD1 mRNA in a dose dependent manner
- prevention of apoptosis in PC12 cells [14]: can prevent apoptosis
- cytotoxicity of dopamine towards SH-SY5Y cells [15]: enhance the cytotoxicity of dopamine
- clinical condition of Alzheimer patients [16]: improved the clinical condition of some Alzheimer patients
- blocking of Ara C induced apoptosis ([2]; 10^-7 M (FIG. 1c)): completely blocked
- concentrations required to prevent apoptosis versus minimum necessary for MAO-B inhibition [17]: at least an order of magnitude lower
- symptoms of attention deficit disorder [18]: improved
- effect in Parkinson's disease ([19]; adjuvant to L-dopa): effective adjuvant to L-dopa
- onset of symptoms in Parkinson's disease ([19]; early otherwise untreated cases, administered alone): delay onset of symptoms

Molecule: CC(N)Cc1ccccc1 (stereo not shown) [amphetamine]
- neurotoxicity [20]: neurotoxic even at quite low concentrations

Molecule: CN[C@@H](C)Cc1ccccc1 [methamphetamine]
- neurotoxicity [20]: neurotoxic even at quite low concentrations

Molecule: NGF: NGF
- SOD1 mRNA induction (previous findings) [13]: can induce SOD1 mRNA in a dose dependent manner
